Measurements reported in ChEMBL document CHEMBL4622935, “Novel anticancer drug curaxin CBL0137 impairs DNA methylation by eukaryotic DNA methyltransferase Dnmt3a” (Bioorg Med Chem Lett, 2020).

Columns and labels:
[1] = biological target: DNA (cytosine-5)-methyltransferase 3A (Homo sapiens, UniProt Q9Y6K1); assay: Binding affinity to DNMT3A catalytic domain (unknown origin) assessed as inhibition of enzyme-mediated DNA methylation preincubated for 1 hr followed by enzyme addition measured after 1 hr in presence of AdoMet by PAGE analysis
DNA (cytosine-5)-methyltransferase 3A (Homo sapiens, UniProt Q9Y6K1), sequence (Q9Y6K1 whole entry, looked up, the tested form may be a part): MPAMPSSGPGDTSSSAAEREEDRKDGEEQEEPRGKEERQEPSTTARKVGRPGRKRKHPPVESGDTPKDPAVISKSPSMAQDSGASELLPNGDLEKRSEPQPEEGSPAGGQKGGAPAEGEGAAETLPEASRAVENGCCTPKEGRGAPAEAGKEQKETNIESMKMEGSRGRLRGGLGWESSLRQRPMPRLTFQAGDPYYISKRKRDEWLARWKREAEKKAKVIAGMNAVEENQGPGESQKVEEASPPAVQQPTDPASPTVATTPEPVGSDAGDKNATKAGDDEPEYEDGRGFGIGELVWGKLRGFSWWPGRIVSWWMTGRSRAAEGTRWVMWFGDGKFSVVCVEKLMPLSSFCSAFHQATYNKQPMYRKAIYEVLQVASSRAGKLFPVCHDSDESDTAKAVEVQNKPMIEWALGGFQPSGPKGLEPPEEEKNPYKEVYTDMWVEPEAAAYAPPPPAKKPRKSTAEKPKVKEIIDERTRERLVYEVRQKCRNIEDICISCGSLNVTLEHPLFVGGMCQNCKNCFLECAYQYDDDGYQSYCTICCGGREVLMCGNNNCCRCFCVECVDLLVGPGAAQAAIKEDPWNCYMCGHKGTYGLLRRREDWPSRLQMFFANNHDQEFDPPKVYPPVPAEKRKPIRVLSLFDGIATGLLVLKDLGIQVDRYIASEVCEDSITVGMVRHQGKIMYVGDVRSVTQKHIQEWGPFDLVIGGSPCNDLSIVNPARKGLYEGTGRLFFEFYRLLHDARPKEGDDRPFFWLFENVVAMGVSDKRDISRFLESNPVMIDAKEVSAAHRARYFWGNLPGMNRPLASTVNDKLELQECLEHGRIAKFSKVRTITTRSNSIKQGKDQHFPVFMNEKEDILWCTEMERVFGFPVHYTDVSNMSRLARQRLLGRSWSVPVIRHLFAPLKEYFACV

[2] = biological target: T1, DNA (cytosine-5)-methyltransferase 3A (Mus musculus, UniProt O88508); assay: Inhibition of murine DNMT3A catalytic domain-mediated DNA methylation using 5'-6FAM-tagged 30-mer duplex DNA (17 AT bp) as substrate preincubated for 30 mins followed by enzyme addition
[3] = biological target: DNA (cytosine-5)-methyltransferase 3A (Mus musculus) (UniProt O88508); assay: Inhibition of murine DNMT3A catalytic domain-mediated DNA methylation using 5'-6FAM-tagged 30-mer duplex DNA (17 AT bp) as substrate at 60 uM preincubated for 30 mins followed by enzyme addition relative to control
[4] = biological target: DNA (cytosine-5)-methyltransferase 3A (Mus musculus) (UniProt O88508); assay: Inhibition of murine DNMT3A catalytic domain-mediated DNA methylation using 5'-6FAM-tagged 30-mer duplex DNA (22 AT bp) as substrate at 60 uM preincubated for 30 mins followed by enzyme addition relative to control
[5] = biological target: T1, DNA (cytosine-5)-methyltransferase 3A; assay: Inhibition of murine DNMT3A catalytic domain-mediated DNA methylation using 5'-6FAM-tagged 30-mer duplex DNA (22 AT bp) as substrate preincubated for 30 mins followed by enzyme addition
[6] = biological target: DNA (cytosine-5)-methyltransferase 3A (Mus musculus) (UniProt O88508); assay: Binding affinity to murine DNMT3A catalytic domain assessed as fold reduction in compound fluorescence at 5 uM by dialysis method relative to control
DNA [7] = assay: Binding affinity to 5'-6FAM-tagged 30-mer duplex DNA (17 AT bp) (unknown origin) assessed as dissociation constant for complound-DNA complex by fluorescence polarization assay; format: nucleic-acid assay
DNA [8] = assay: Binding affinity to 5'-6FAM-tagged 30-mer duplex DNA (22 AT bp) (unknown origin) assessed as dissociation constant for complound-DNA complex by fluorescence polarization assay; format: nucleic-acid assay

Row | SMILES | IC50 [1] | IC50 [2] | inhibition [3] | inhibition [4] | IC50 [5] | fold change (FC) [6] | Kd (DNA [7]) | Kd (DNA [8])
1 | CCC1/C=C/C=C/C[C@H](C)[C@@H](O)[C@](C)(O)C(=O)[C@@H](C)[C@H](O)[C@@H](C)C(=O)[C@H](C)[C@@H](O)[C@H](C)/C=C/C(=O)OC2[C@@H](C)C(CC1)OC1(CC[C@@H](C)C(C[C@H](C)O)O1)[C@@H]2C (stereo not given in full) | 6 µM |  |  |  |  |  |  | 
2 | COc1cccc2c1C(=O)c1c(O)c3c(c(O)c1C2=O)C[C@@](O)(C(=O)CO)C[C@@H]3O[C@H]1C[C@H](N)[C@H](O)[C@H](C)O1 [DOXORUBICIN] |  | 3 µM | 70% |  |  |  |  | 
3 | CC(=O)c1ccc2c(c1)c1cc(C(C)=O)ccc1n2CCNC(C)C |  | 9 µM | 80% | 51% | 5 µM | 20 | 20 µM | 34 µM
